The record followed here is US11623919B2, “Heterocyclic P2X7 antagonists” (AXXAM S.P.A., priority 2017, dated 2023).

Structures are written as SMILES.

Test in all cases: Screen Quest Fluo-8 No Wash Calcium Assay (Bz-ATP evoked Ca2+ influx, FLIPR)
Common to all, as to type: cell-based

Test [1] addresses T1, P2X7 receptor (Homo sapiens, UniProt Q99572).
T1 sequence (Q99572 1-595): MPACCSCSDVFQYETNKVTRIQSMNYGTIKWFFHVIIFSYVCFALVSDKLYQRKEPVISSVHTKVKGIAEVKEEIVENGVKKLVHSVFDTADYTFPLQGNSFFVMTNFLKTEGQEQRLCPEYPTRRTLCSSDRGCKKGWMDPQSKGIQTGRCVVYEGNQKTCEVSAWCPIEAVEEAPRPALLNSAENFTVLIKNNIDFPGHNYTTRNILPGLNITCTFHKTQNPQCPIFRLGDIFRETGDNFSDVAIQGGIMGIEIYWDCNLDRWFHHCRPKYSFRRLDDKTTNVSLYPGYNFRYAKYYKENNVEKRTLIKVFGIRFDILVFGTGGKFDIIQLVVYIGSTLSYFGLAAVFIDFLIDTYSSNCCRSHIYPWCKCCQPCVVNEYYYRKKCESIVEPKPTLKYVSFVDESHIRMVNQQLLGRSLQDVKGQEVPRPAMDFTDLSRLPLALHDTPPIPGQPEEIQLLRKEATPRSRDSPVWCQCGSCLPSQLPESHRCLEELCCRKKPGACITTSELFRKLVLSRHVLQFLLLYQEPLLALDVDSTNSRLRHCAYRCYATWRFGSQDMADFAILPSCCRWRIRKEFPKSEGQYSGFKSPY
On the set-up: hP2X7 (IC50; nM); other: hP2X7; HEK-293 cells stably transfected with P2X7 receptor, Bz-ATP at EC80, Fluo-8 NW; potency. The following applies: hP2X7; HEK-293 cells stably transfected with P2X7 receptor, Bz-ATP at EC80, Fluo-8 NW; potency ranges A-D. The protocol: (§1) Extracellular binding of Bz-ATP to P2X7 receptor opens the channel and allows Ca2+ influx into the cells. […] Once inside the cell, the lipophilic blocking groups of Fluo-8 are cleaved by non-specific cell esterases, resulting in a negatively-charged fluorescent dye that stays inside cells. Its fluorescence increases upon binding to calcium.
(§2) HEK-293 cells stably transfected with P2X7 receptor were seeded overnight in growth medium at 10,000 to 20,000 cell/well in 384-well plate. 24 hours later, the medium was removed and the cells were pre-loaded at RT for 1 hour with 20 μL/w of Fluo-8 NW. Then 10 μL/w of tests compounds and reference antagonist A438079 at 3×-concentration were injected with the […] and the kinetic response over a period of five minutes was monitored. A second injection of 15 μL/w of 3× reference activator (Bz-ATP at EC80) was performed with the […] and the signal of the emitted fluorescence was recorded for additional three minutes. All the experiment was carried out in a Low Divalent Cation Assay Buffer (0.3 mM Ca^2+ and 0 mM Mg^2+). The effect of the test compounds was measured as percent inhibition vs the reference antagonist and IC50 values were calculated accordingly.

The target of test [2] is T2, P2X7 receptor (Mus musculus, UniProt Q9Z1M0).
T2 construct: mP2X7 (IC50; nM); other: mP2X7; HEK-293 cells stably transfected with P2X7 receptor, Bz-ATP at EC80, Fluo-8 NW; potency
T2 sequence (Q9Z1M0 1-595): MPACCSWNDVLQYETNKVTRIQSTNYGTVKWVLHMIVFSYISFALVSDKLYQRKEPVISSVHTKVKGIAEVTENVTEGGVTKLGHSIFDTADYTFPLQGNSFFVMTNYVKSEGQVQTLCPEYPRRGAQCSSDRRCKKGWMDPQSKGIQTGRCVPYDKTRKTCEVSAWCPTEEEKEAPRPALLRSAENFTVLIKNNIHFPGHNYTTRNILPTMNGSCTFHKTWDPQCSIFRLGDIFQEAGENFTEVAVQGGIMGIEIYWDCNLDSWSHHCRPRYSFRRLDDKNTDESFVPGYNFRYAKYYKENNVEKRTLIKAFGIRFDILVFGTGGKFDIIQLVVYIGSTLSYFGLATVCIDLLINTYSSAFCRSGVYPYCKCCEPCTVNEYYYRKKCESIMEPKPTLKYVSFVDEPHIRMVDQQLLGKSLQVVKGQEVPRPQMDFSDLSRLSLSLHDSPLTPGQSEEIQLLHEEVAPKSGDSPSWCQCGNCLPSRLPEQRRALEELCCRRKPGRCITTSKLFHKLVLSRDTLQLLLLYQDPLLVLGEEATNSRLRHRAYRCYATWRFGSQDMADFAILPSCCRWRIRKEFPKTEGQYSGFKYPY
Conditions: mP2X7; HEK-293 cells stably transfected with P2X7 receptor, Bz-ATP at EC80, Fluo-8 NW; potency ranges A-D. The protocol:
as §1, §2

In test [3] the target is T3, P2X7 receptor (Rattus norvegicus, UniProt Q64663).
T3 construct: rP2X7 (IC50; nM); other: rP2X7; HEK-293 cells stably transfected with P2X7 receptor, Bz-ATP at EC80, Fluo-8 NW; potency
T3 sequence (Q64663 1-595): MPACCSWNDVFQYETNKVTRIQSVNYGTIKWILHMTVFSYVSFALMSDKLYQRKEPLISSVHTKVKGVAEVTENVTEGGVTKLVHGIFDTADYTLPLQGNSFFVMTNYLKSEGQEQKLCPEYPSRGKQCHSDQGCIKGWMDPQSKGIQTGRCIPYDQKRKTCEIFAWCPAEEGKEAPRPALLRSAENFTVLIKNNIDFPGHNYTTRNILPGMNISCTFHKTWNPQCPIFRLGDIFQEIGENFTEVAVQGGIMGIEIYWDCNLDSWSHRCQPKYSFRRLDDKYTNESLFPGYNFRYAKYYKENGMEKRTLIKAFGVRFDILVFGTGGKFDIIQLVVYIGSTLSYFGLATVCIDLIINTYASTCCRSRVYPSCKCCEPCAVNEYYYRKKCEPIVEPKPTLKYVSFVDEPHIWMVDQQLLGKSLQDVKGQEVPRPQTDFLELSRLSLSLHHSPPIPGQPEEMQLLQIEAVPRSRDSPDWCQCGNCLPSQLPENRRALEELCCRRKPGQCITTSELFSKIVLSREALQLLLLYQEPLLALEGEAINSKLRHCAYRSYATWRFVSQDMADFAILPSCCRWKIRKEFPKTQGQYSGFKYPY
Conditions: rP2X7; HEK-293 cells stably transfected with P2X7 receptor, Bz-ATP at EC80, Fluo-8 NW; potency ranges A-D. As to the method: as §1, §2

`O=c1onc(CC2CCC(F)(F)CC2)n1Cn1ccc(C(F)(F)F)n1` [Example 198, 3-[(4,4-difluorocyclohexyl)methyl]-4-{[3-(trifluoromethyl)-1H-pyrazol-1-yl]methyl}-1,2,4-oxadiazol-5(4H)-one]: the values for the IC50 at P2X7 receptor [1], at P2X7 receptor [2] and on P2X7 receptor [3] were > 10000 nM, 1000 to 10000 nM and 1000 to 10000 nM, respectively.

Consider `CCCOCn1c(Cc2c(F)cccc2Cl)noc1=O` [Example 102, 3-[(2-chloro-6-fluorophenyl)methyl]-4-(propoxymethyl)-4,5-dihydro-1,2,4-oxadiazol-5-one], for which the IC50 at P2X7 receptor [1] is 1000 to 10000 nM; at P2X7 receptor [2], > 10000 nM; at P2X7 receptor [3], 1000 to 10000 nM.

Take `Cc1ncccc1Cn1c(Cc2c(F)cccc2Cl)noc1=O` [Example 24, 3-[(2-chloro-6-fluorophenyl)methyl]-4-[(2-methylpyridin-3-yl)methyl]-4,5-dihydro-1,2,4-oxadiazol-5-one]: the IC50 on P2X7 receptor [1] is > 10000 nM; on P2X7 receptor [2], 1000 to 10000 nM; at P2X7 receptor [3], > 10000 nM.

`O=c1onc(Cc2c(F)cccc2Cl)n1Cc1ccccn1` [Example 62, 3-[(2-chloro-6-fluorophenyl)methyl]-4-(pyridin-2-ylmethyl)-4,5-dihydro-1,2,4-oxadiazol-5-one]: the IC50 at P2X7 receptor [1], on P2X7 receptor [2] and at P2X7 receptor [3] was > 10000 nM throughout.

`O=c1onc(Cc2ccc(F)cc2)n1CC1CCCCC1` [Example 12, 4-(cyclohexylmethyl)-3-[(4-fluorophenyl)methyl]-4,5-dihydro-1,2,4-oxadiazol-5-one]: the IC50 at P2X7 receptor [1] lay in the range of 1000 to 10000 nM; on P2X7 receptor [2] it was 200 to 1000 nM; at P2X7 receptor [3], 200 to 1000 nM.

Regarding `Cc1noc(C)c1Cn1c(Cc2c(F)cccc2Cl)noc1=O` [Example 36, 3-[(2-chloro-6-fluorophenyl)methyl]-4-[(dimethyl-1,2-oxazol-4-yl)methyl]-4,5-dihydro-1,2,4-oxadiazol-5-one], the values for the IC50 on P2X7 receptor [1], at P2X7 receptor [2] and on P2X7 receptor [3] were 1000 to 10000 nM, > 10000 nM and > 10000 nM, respectively.

In the case of `COc1cccc(Cc2noc(=O)n2CC2CCCCC2)c1` [Example 127, 4-(cyclohexylmethyl)-3-[(3-methoxyphenyl)methyl]-4,5-dihydro-1,2,4-oxadiazol-5-one], the IC50 on P2X7 receptor [1], at P2X7 receptor [2] and on P2X7 receptor [3] was > 10000 nM in each case.

`Cc1ccc(Cn2c(Cc3c(F)cccc3Cl)noc2=O)cc1` [Example 67, 3-[(2-chloro-6-fluorophenyl)methyl]-4-[(4-methylphenyl)methyl]-4,5-dihydro-1,2,4-oxadiazol-5-one]: the IC50 on P2X7 receptor [1], on P2X7 receptor [2] and on P2X7 receptor [3] was 1000 to 10000 nM throughout.

Turning to `O=c1onc(CC2CCC(F)(F)CC2)n1Cc1ccccc1Cl` [Example 170, 4-[(2-chlorophenyl)methyl]-3-[(4,4-difluorocyclohexyl)methyl]-4,5-dihydro-1,2,4-oxadiazol-5-one], the IC50 was < 200 nM on P2X7 receptor [1], 200 to 1000 nM at P2X7 receptor [2] and < 200 nM on P2X7 receptor [3].

Regarding `Cc1nn(C)c(C)c1Cc1noc(=O)n1CC1CCCCC1` [Example 214, 4-(cyclohexylmethyl)-3-[(trimethyl-1H-pyrazol-4-yl)methyl]-4,5-dihydro-1,2,4-oxadiazol-5-one], the values for the IC50 at P2X7 receptor [1], on P2X7 receptor [2] and at P2X7 receptor [3] were < 200 nM, 1000 to 10000 nM and 200 to 1000 nM, respectively.

In the case of `O=c1onc(Cc2c(F)cccc2Cl)n1Cn1ccc(C(F)(F)F)n1` [Example 35, 3-[(2-chloro-6-fluorophenyl)methyl]-4-{[3-(trifluoromethyl)-1H-pyrazol-1-yl]methyl}-4,5-dihydro-1,2,4-oxadiazol-5-one], the IC50 on P2X7 receptor [1], on P2X7 receptor [2] and at P2X7 receptor [3] was 1000 to 10000 nM throughout.

Take `O=c1onc(Cc2cccc(F)c2)n1Cc1ccc(F)cc1` [Example 107, 3-[(3-fluorophenyl)methyl]-4-[(4-fluorophenyl)methyl]-4,5-dihydro-1,2,4-oxadiazol-5-one]: the IC50 at P2X7 receptor [1], at P2X7 receptor [2] and on P2X7 receptor [3] was 1000 to 10000 nM throughout.

`O=c1onc(Cc2ccccc2Cl)n1Cc1c(F)cccc1Cl` [Example 20, 4-[(2-chloro-6-fluorophenyl)methyl]-3-[(2-chlorophenyl)methyl]-4,5-dihydro-1,2,4-oxadiazol-5-one]: the IC50 on P2X7 receptor [1], on P2X7 receptor [2] and at P2X7 receptor [3] was 1000 to 10000 nM each time.

Turning to `Cc1nn(C)c(C)c1Cc1noc(=O)n1Cc1ccc(F)cc1` [Example 212, 4-[(4-fluorophenyl)methyl]-3-[(trimethyl-1H-pyrazol-4-yl)methyl]-4,5-dihydro-1,2,4-oxadiazol-5-one], the IC50 on P2X7 receptor [1] was 1000 to 10000 nM; on P2X7 receptor [2], > 10000 nM; on P2X7 receptor [3] it was > 10000 nM.

Consider `O=c1onc(Cc2c(F)cccc2Cl)n1Cc1cnco1` [Example 40, 3-[(2-chloro-6-fluorophenyl)methyl]-4-(1,3-oxazol-5-ylmethyl)-4,5-dihydro-1,2,4-oxadiazol-5-one], for which the IC50 on P2X7 receptor [1], on P2X7 receptor [2] and at P2X7 receptor [3] was > 10000 nM in each case.

Turning to `O=c1onc(CC2CCC(F)(F)C2)n1Cc1ccc(F)cc1` (stereo not drawn) [Example 204, 3-[(3,3-difluorocyclopentyl)methyl]-4-[(4-fluorophenyl)methyl]-4,5-dihydro-1,2,4-oxadiazol-5-one], the IC50 at P2X7 receptor [1], at P2X7 receptor [2] and on P2X7 receptor [3] was > 10000 nM in each case.

Consider `O=c1onc(CN2CCC(F)(F)CC2)n1CC1CCCCC1` [Example 222, 4-(cyclohexylmethyl)-3-[(4,4-difluoropiperidin-1-yl)methyl]-4,5-dihydro-1,2,4-oxadiazol-5-one], for which the IC50 on P2X7 receptor [1] was > 10000 nM; on P2X7 receptor [2] it was 1000 to 10000 nM; on P2X7 receptor [3] it was 1000 to 10000 nM.

The term IC50 denotes the midpoint of a concentration-inhibition curve.
